From patent US8710043B2, “TRPM8 antagonists and their use in treatments” (Amgen Inc., priority 2011, dated 2014)

Molecular target: T1, human TRPM8 (Homo sapiens, UniProt Q7Z2W7)
T1 construct: expressed in transfected cells; host or cells: Chinese hamster ovary (CHO) cells, T-REx tetracycline-inducible system, co-transfected with aequorin
Experiment: Luminescence readout assay for measuring intracellular calcium, icilin activation
Format: cell-based
Conditions: CHO cells expressing human TRPM8, aequorin luminescence, 1 μM icilin activation; read-out: hTRPM8 IC50
Description: Luminescence Readout Assay for Measuring Intracellular Calcium.
A stable Chinese hamster ovary cell line expressing human TRPM8 was generated using tetracycline inducible T-REx™ expression system from Invitrogen, Inc. (Carlsbad, Calif.). […] Twenty four hours before the assay, cells were seeded in 96-well plates and TRPM8 expression was induced with 0.5 μg/mL tetracycline. […] Potential antagonists were added 2.5 min prior to the addition of agonist, 1 μM icilin, 100 μM L-menthol, or 1 min prior to the addition of cold buffer (<10° C.). The luminescence was measured by a CCD camera based FLASH-luminometer built by Amgen, Inc. A cooling device attached to FLASH luminometer was used for cold activation.

T1 sequence (Q7Z2W7 whole entry): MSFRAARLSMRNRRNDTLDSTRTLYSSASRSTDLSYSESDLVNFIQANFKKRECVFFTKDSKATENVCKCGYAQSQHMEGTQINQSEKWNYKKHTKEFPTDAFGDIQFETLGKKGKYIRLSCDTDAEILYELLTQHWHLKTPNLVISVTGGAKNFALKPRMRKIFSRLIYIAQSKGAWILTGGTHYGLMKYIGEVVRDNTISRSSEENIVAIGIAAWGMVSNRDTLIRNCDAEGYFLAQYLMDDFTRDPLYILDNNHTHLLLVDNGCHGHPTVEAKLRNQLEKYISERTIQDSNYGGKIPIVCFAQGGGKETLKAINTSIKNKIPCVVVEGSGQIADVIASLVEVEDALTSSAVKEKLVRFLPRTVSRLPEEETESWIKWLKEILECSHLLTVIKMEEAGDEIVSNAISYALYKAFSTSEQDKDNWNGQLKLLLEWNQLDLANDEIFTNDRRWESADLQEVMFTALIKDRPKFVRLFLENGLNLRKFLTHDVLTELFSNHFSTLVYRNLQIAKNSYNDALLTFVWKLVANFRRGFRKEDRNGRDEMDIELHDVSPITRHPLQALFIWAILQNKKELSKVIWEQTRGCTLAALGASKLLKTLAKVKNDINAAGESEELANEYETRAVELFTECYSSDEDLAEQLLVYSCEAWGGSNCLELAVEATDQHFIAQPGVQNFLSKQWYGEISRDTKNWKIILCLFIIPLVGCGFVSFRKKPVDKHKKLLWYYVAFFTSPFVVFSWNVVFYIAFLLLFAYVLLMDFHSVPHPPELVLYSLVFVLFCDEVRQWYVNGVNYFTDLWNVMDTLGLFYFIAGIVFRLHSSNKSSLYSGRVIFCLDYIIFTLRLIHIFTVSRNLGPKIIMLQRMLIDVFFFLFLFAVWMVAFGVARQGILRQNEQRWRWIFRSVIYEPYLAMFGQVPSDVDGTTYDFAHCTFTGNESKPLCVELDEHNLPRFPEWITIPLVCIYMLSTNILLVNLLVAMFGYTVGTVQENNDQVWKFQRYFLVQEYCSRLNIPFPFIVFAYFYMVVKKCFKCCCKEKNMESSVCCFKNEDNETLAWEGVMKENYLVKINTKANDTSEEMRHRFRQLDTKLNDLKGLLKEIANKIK

IC50	Structure (SMILES)
17 nM	O=C1COc2cc(C(=O)N[C@@H](c3ccc(C(F)(F)F)cc3)c3ncccc3F)ccc2N1 [Example 73, (S)-N-((3-fluoropyridin-2-yl)(4-(trifluoromethyl)phenyl)methyl)-3-oxo-3,4-dihydro-2H-benzo[b][1,4]oxazine-7-carboxamide]
39.1 nM	O=C1CNc2cc(C(=O)N[C@@H](c3ccc(C(F)(F)F)cc3)c3ncccc3F)ccc2O1 [Example 75, (S)-N-((3-fluoropyridin-2-yl)(4-(trifluoromethyl)phenyl)methyl)-2-oxo-3,4-dihydro-2H-benzo[b][1,4]oxazine-6-carboxamide]
5.3 nM	Cc1cccnc1[C@@H](NC(=O)c1ccc2oc(=O)[nH]c2c1)c1ccc(C(F)(F)F)cc1 [Example 84, (S)-N-((3-methylpyridin-2-methyl)phenyl)yl)(4-(trifluoromethyl)-2-oxo-2,3-dihydrobenzo[d]oxazole-5-carboxamide]
10.2 nM	O=C(N[C@@H](c1ccc(C(F)(F)F)cc1)c1ncccc1F)c1ccn2ccnc2c1 [Example 86, (S)-N-((3-fluoropyridin-2-yl)(4-(trifluoromethyl)phenyl)methyl)imidazo[1,2-a]pyridine-7-carboxamide]
8.9 nM	O=C(N[C@@H](c1ccc(C(F)(F)F)cc1)c1ncccc1C(F)(F)F)c1ccn2ccnc2c1 [Example 87, (S)-N-((4-(trifluoromethyl)phenyl)(3-(trifluoromethyl)pyridin-2-yl)methyl)imidazo[1,2-a]pyridine-7-carboxamide]
12.1 nM	O=C(N[C@@H](c1ccc(OC(F)(F)F)cc1)c1ncccc1F)c1ccn2ccnc2c1 [Example 88, (S)-N-((3-fluoropyridin-2-yl)(4-(trifluoromethoxy)phenyl)methyl)imidazo[1,2-a]pyridine-7-carboxamide]
10.3 nM	O=C(N[C@@H](c1ccc(OC(F)(F)F)cc1)c1ncccc1F)c1ccc2nccn2c1 [Example 89]
6.2 nM	O=C1Cc2ccc(C(=O)N[C@@H](c3ccc(OC(F)(F)F)cc3)c3ncccc3F)cc2N1 [Example 90, (S)-N-((3-fluoropyridin-2-yl)(4-(trifluoromethoxy)phenyl)methyl)-2-oxoindoline-6-carboxamide]
10.3 nM	CC#Cc1cccnc1[C@@H](NC(=O)c1ccc(=O)[nH]c1)c1ccc(C(F)(F)F)cc1 [Example 92, (S)-6-oxo-N-((3-(prop-1-yn-1-yl)pyridin-2-yl)(4-(trifluoromethyl)phenyl)methyl)-1,6-dihydropyridine-3-carboxamide]
129 nM	O=C(N[C@@H](c1ccc(C(F)(F)F)cc1)c1ncccc1C(F)(F)F)c1ccc2c(c1)C(=O)N(c1ccccn1)C2=O [Example 99, (S)-1,3-dioxo-2-(pyridin-2-yl)-N-((4-(trifluoromethyl)phenyl)(3-(trifluoromethyl)pydin-2-yl)methyl)isoindoline-5-carboxamide 2,2,2-trifluoroacetate]
61.5 nM	O=C(N[C@@H](c1ccc(C(F)(F)F)cc1)c1ncccc1C(F)(F)F)c1ccc(C(=O)O)c(Br)c1 [Example 100, (S)-2-bromo-4-(((4-(trifluoromethyl)phenyl)(3-(trifluoromethyl)pyridin-2-yl)methyl)carbamoyl)benzoic acid]
395 nM	CC1(C#Cc2cccnc2[C@@H](NC(=O)c2ccc3ncccc3c2)c2ccc(C(F)(F)F)cc2)COC1 [Example 101, (S)-N-((3-((3-methyloxetan-3-yl)ethynyl)pyridin-2-yl)(4-(trifluoromethyl)phenyl)methyl)quinoline-6-carboxamide 2,2,2-trifluoroacetate]
8.9 nM	O=C(N[C@@H](c1ccc(C(F)(F)F)cc1)c1ncccc1C(F)(F)F)c1ccc2c(O)ccnc2c1 [Example 106, (S)-4-hydroxy-N-((4-(trifluoromethyl)phenyl)(3-(trifluoromethyl)pyridin-2-yl)methyl)quinoline-7-carboxamide 2,2,2-trifluoroacetate]
63.9 nM	O=C(N[C@@H](c1ccc(C(F)(F)F)cc1)c1ncccc1C(F)(F)F)c1ccc2nccc(O)c2c1 [Example 109, (S)-4-hydroxy-N-((4-(trifluoromethyl)phenyl)(3-(trifluoromethyl)pyridin-2-yl)methyl)quinoline-6-carboxamide 2,2,2-trifluoroacetate]

Second part, the molecule before the results:

Structure (SMILES)	IC50
O=C(N[C@@H](c1ccc(C(F)(F)F)cc1)c1ncccc1F)c1ccc[nH]c1=O [Example 72, (S)-N-((3-fluoropyridin-2-yl)(4-(trifluoromethyl)phenyl)methyl)-2-oxo-1,2-dihydropyridine-3-carboxamide]	167 nM
CNS(=O)(=O)c1ccc(C(=O)N[C@@H](c2ccc(C(F)(F)F)cc2)c2ncccc2F)cc1 [Example 74, (S)-N-((3-fluoropyridin-2-yl)(4-(trifluoromethyl)phenyl)methyl)-4-(N-methylsulfamoyl)benzamide]	85.3 nM
O=C1COc2c(cccc2C(=O)N[C@@H](c2ccc(C(F)(F)F)cc2)c2ncccc2F)N1 [Example 77]	53 nM
O=C(N[C@@H](c1ccc(C(F)(F)F)cc1)c1ncccc1F)c1ccc2[nH]c(=O)oc2c1 [Example 78, (S)-N-((3-fluoropyridin-2-yl)(4-(trifluoromethyl)phenyl)methyl)-2-oxo-2,3-dihydrobenzo[d]oxazole-6-carboxamide]	14.8 nM
O=C(N[C@@H](c1ccc(OC(F)(F)F)cc1)c1ncccc1F)c1ccc2[nH]c(=O)oc2c1 [Example 80, (S)-N-((3-fluoropyridin-2-yl)(4-(trifluoromethoxy)phenyl)methyl)-2-oxo-2,3-dihydrobenzo[d]oxazole-6-carboxamide]	23.1 nM
O=C1COc2cc(C(=O)N[C@@H](c3ccc(OC(F)(F)F)cc3)c3ncccc3F)ccc2N1 [Example 81]	24.8 nM
Cc1cccnc1[C@@H](NC(=O)c1ccc(=O)[nH]c1)c1ccc(C(F)(F)F)cc1 [Example 82, (S)-N-((3-methylpyridin-2-yl)(4-(trifluoromethyl)phenyl)methyl)-6-oxo-1,6-dihydropyridine-3-carboxamide 2,2,2-trifluoroacetate]	17.7 nM
Cc1cccnc1[C@@H](NC(=O)c1ccc(=O)n(C)c1)c1ccc(C(F)(F)F)cc1 [Example 83, (S)-1-methyl-N-((3-methylpyridin-2-yl)(4-(trifluoromethyl)phenyl)methyl)-6-oxo-1,6-dihydropyridine-3-carboxamide 2,2,2-trifluoroacetate]	39.2 nM
Cc1cccnc1[C@@H](NC(=O)c1ccc2c(c1)OCC(=O)N2)c1ccc(C(F)(F)F)cc1 [Example 85, (S)-N-((3-methylpyridin-2-yl)(4-(trifluoromethyl)phenyl)methyl)-3-oxo-3,4-dihydro-2H-benzo[b][1,4]oxazine-7-carboxamide]	28.9 nM
CC#Cc1cccnc1[C@@H](NC(=O)c1ccc2ncccc2c1)c1ccc(C(F)(F)F)cc1 [Example 93, (S)-N-((3-(prop-1-yn-1-yl)pyridin-2-yl)(4-(trifluoromethyl)phenyl)methyl)quinoline-6-carboxamide]	17.8 nM
O=C(N[C@@H](c1ccc(C(F)(F)F)cc1)c1ncccc1C(F)(F)F)c1ccc2c(c1)C(=O)NC2=O [Example 94, (S)-1,3-dioxo-N-((4-(trifluoromethyl)phenyl)(3-(trifluoromethyl)pyridin-2-yl)methyl)isoindoline-5-carboxamide]	41.4 nM
CC#Cc1cccnc1[C@@H](NC(=O)c1ccc(OC)cc1)c1ccc(C(F)(F)F)cc1 [Example 95, (S)-4-methoxy-N-((3-(prop-1-yn-1-yl)pyridin-2-yl)(4-(trifluoromethyl)phenyl)methyl)benzamide 2,2,2-trifluoroacetate]	57.2 nM
CC#Cc1cccnc1[C@@H](NC(=O)c1ccc(OC)nc1)c1ccc(C(F)(F)F)cc1 [Example 96, (S)-6-methoxy-N-((3-(prop-1-yn-1-yl)pyridin-2-yl)(4-(trifluoromethyl)phenyl)methyl)nicotinamide]	37.6 nM
CC#Cc1cccnc1[C@@H](NC(=O)c1ccc2cccnc2c1)c1ccc(C(F)(F)F)cc1 [Example 97, (S)-N-((3-(prop-1-yn-1-yl)pyridin-2-yl)(4-(trifluoromethyl)phenyl)methyl)quinoline-7-carboxamide 2,2,2-trifluoroacetate]	119 nM
CC#Cc1cccnc1[C@@H](NC(=O)c1ccccc1)c1ccc(C(F)(F)F)cc1 [Example 98, (S)-N-((3-(prop-1-yn-1-yl)pyridin-2-yl)(4-(trifluoromethyl)phenyl)methyl)benzamide]	125 nM
O=C(N[C@@H](c1ccc(C(F)(F)F)cc1)c1ncccc1F)c1ccc2[nH]c(=O)ccc2c1 [Example 104, (S)-N-((3-fluoropyridin-2-yl)(4-(trifluoromethyl)phenyl)methyl)-2-oxo-1,2-dihydroquinoline-6-carboxamide]	6.2 nM
O=C(N[C@@H](c1ccc(C(F)(F)F)cc1)c1ncccc1F)c1ccc2c(O)ccnc2c1 [Example 105, (S)-N-((3-fluoropyridin-2-yl)(4-(trifluoromethyl)phenyl)methyl)-4-hydroxyquinoline-7-carboxamide 2,2,2-trifluoroacetate]	10.8 nM
O=C(N[C@@H](c1ccc(C(F)(F)F)c(F)c1)c1ncccc1C(F)(F)F)c1ccc2nccnc2c1 [Example 108, (S)-N-((3-fluoro-4-(trifluoromethyl)phenyl)(3-(trifluoromethyl)pyridin-2-yl)methyl)quinoxaline-6-carboxamide]	24.1 nM
O=C(N[C@@H](c1ccc(C(F)(F)F)cc1)c1ncccc1C(F)(F)F)c1ccc2c(Cl)ccnc2c1 [Example 110, (S)-4-chloro-N-((4-(trifluoromethyl)phenyl)(3-(trifluoromethyl)pyridin-2-yl)methyl)quinoline-7-carboxamide 2,2,2-trifluoroacetate]	64.4 nM
